Measurements reported in paper PMC5578599, “Programmed cell death in Acanthamoeba castellanii Neff induced by several molecules present in olive leaf extracts” (PLoS ONE, 2017).
≈ marks a conversion by molar mass, not a printed value. Entries after “also recorded” stand apart in the source; their conditions may differ. Like-named read-outs stand apart in the source and are kept apart here.

Legend:
[1] = tested on: Acanthamoeba castellanii Neff (ATCC 30010); assay: Alamar Blue assay against the trophozoite stage, A. castellanii Neff; assay type: cell-based; details: for IC90: ATCC30010, trophozoites, Alamar Blue
Method: (§1) The strains used in this study included a type strain: Acanthamoeba castellanii Neff (ATCC 30010), and two clinical isolates, CLC-16, genotype T3; and CLC-51, genotype T1, which were isolated in a previous study. The strains were axenically grown in PYG medium (0.75% (w/v) proteose peptone, 0.75% (w/v) yeast extract and 1.5% (w/v) glucose) containing 40 μg/ml of gentamicin (Biochrom AG, Cultek, Granollers, Barcelona, Spain).
(§2) The anti-Acanthamoeba activities of the tested molecules were determined using the Alamar Blue® assay as previously described. Briefly, Acanthamoeba strains were seeded in duplicate on a 96-well microtiter plates with 50μl from a stock solution of 10^4 cells/ml. Amoebae were left to adhere for 15 min process which was checked using a Leika DMIL inverted microscope (Leika, Wetzlar, Germany). After that, 50 μl of serial dilutions of the molecules to be evaluated were added to the wells (In all tests, 1% DMSO was used to dissolve the highest dose of the compounds without inducing any effects on the parasites). Finally the Alamar Blue Reagent® (Life Technologies, Madrid, Spain) was placed into each well at an amount equal to 10% of the final volume. Test plates containing Alamar Blue were then incubated for 120 h at 28°C with a slight agitation.
(§3) Subsequently the plates were analyzed, during an interval of time between 72 and 144 h, on an EnSpire® Multimode Plate Reader (Perkin Elmer, Madrid, Spain) using a test wavelength of 570 nm and a reference wavelength of 630 nm. Percentages of growth inhibition, 50% and 90% inhibitory concentrations (IC50 and IC90) were calculated by linear regression analysis with 95% confidence limits. All experiments were performed three times, and the mean values were also calculated.

[2] = tested on: Acanthamoeba castellanii Neff (ATCC 30010); assay: as above; assay type: cell-based; details: IC50/96 h; for IC50: Acanthamoeba castellanii, ATCC30010, trophozoites; for IC50 A. Neff: trophozoites
CLC-16, genotype T3 = assay: Alamar Blue assay against the trophozoite stage, clinical isolate CLC-16; assay type: cell-based; details: Acanthamoeba, trophozoites, IC50/96 h
Method: as §1, §2, §3

CLC-51, genotype T1 = assay: Alamar Blue assay against the trophozoite stage, clinical isolate CLC-51; assay type: cell-based; details: Acanthamoeba, trophozoites, IC50/96 h
Method: as §1, §2, §3

A. Neff membrane = assay: SYTOX Green plasma membrane permeability; assay type: cell-based, Acanthamoeba castellanii; details: IC90, SYTOX Green, relative to Triton X-100 positive control
Method: The SYTOX® Green assay was performed to detect membrane permeability alterations on the parasites. Briefly, 10^5 amoebae/ml were incubated with the SYTOX® Green at a final concentration of 1 μM (Molecular Probes®) for 30 min in the dark at 26°C. Subsequently, parasites were disposed to black plates and the tested compounds were added at the IC90. The increase in fluorescence due to binding of the fluorescent marker to the amoebic DNA was measured using an EnSpire® Multimode Plate Reader (Perkin Elmer, Madrid, Spain) with excitation wavelength of 504 nm and emission wavelength at 523 nm, and expressed as percentage relative to full permeabilized cells achieved by the addition of 0.1% Triton X-100 [17–19].

macrophages J774.A1 = assay: LDH release cytotoxicity test; assay type: cell-based, murine; details: for Cytotoxicity level at the IC50 against Acanthamoeba / Cytotoxicity level at the IC90 against Acanthamoeba: J774A.1 murine macrophages, 24 hours, LDH release; for Cytotoxicity level at the IC50 against Acanthamoeba: compound at its IC50; for Cytotoxicity level at the IC90 against Acanthamoeba: compound at its IC90
Method: A commercial kit was used for the evaluation of the induced cytotoxic effects of tested compounds based on the measurement of lactate dehydrogenase (LDH) quantity released to the media (LDH Cytotoxicity Detection Kit, Roche Applied Science, Madrid, Spain), following the manufacturer's instructions. Briefly, the macrophages J774.A1 (ATCC # TIB-67) were incubated with different concentrations of the tested compounds for 24 hours in duplicate. After incubation, supernatants were obtained and LDH levels were determined following manufacturer′s instructions. To determine the cytotoxicity percentages, the average absorbance values of the duplicates were calculated and compared with negative and positive controls. Cytotoxic levels were determined as previously described.

A. Neff = assay: JC-1 mitochondrial membrane potential; assay type: cell-based, Acanthamoeba castellanii; details: IC90, 24 hours
Method: The ΔΨm was measured using JC-1 Mitochondrial Membrane Potential Assay Kit (Cayman Chemical, Vitro, Madrid, Spain). This lipophilic cationic probe accumulates in the mitochondrial matrix according to the membrane potential. In healthy cells with a high ΔΨm, JC-1 spontaneously forms complexes known as J-aggregates, showing intense red fluorescence (emission at 595 nm). […] In brief, amoebae, after 24 hours of incubation with different concentrations of the tested compounds, were harvested and washed with buffer. The cells were then incubated at 26°C for 30 minutes with JC-1 dye. Cells were then analyzed by fluorescence measurement in black plates through spectrofluorometer using 490 nm as excitation wavelength. Data presented here are representative of three experiments. The ratio of the reading at 595 nm to the reading at 535 nm was considered as the relative ΔΨm value.

[3] = tested on: Acanthamoeba castellanii Neff; assay: Annexin-V/PI image-based cytometry for apoptosis; assay type: cell-based; details: treated with IC90, 24 h
Method: Annexin-V/propidium iodide (PI) double staining assay was performed using the Tali® Apoptosis Kit—Annexin V Alexa Fluor® 488 & Propidium Iodide according to the manufacturer's instructions (Life Technologies, Madrid, Spain). […] After that, cells were centrifuged and resuspended in ABB containing 1 μl of PI and incubated for 3 min at room temperature. Finally, 25 μl of the stained cells were loaded into a Tali® Cellular Analysis Slide and were analysed in the Tali® Image-Based Cytometer. Data were collected using the Tali® data acquisition and analysis software (Life Technologies, Madrid, Spain).

CC1(C)CC[C@]2(C(=O)O)CC[C@]3(C)C(=CC[C@@H]4[C@@]5(C)C[C@@H](O)[C@H](O)C(C)(C)[C@@H]5CC[C@]43C)[C@@H]2C1 [Maslinic acid]
IC50 ([1]; ATCC30010, read-out: IC50 A. Neff): 30.9 ± 1.33 µg/mL (≈ 65.3 µM)

O=c1cc(-c2ccc(O)c(O)c2)oc2cc(O)cc(O)c12 [Luteolin]
IC50 [2]: 28 ± 1.73 µg/mL (≈ 97.7 µM) | IC50 (CLC-16, genotype T3): 83.1 ± 0.89 µg/mL (≈ 290 µM) | IC50 (CLC-51, genotype T1): 26.6 ± 1.75 µg/mL (≈ 93 µM)

COc1cc(C(=O)O)cc(OC)c1O [Syringic acid]
IC50 [2]: 22.9 ± 2.14 µg/mL (≈ 116 µM) | Plasma membrane permeabilization (A. Neff membrane): induced the higher permeabilization; also recorded: caused plasma membrane permeability | IC90 [1]: 119 µg/mL (≈ 602 µM) | Cytotoxicity (in words) (macrophages J774.A1; J774A.1 macrophages, Fig 2): lowest toxic levels | Cytotoxicity level at the IC50 against Acanthamoeba (macrophages J774.A1): low cytotoxicity (Values between 10 and 25% correspond to low cytotoxicity) | Cytotoxicity level at the IC90 against Acanthamoeba (macrophages J774.A1): low cytotoxicity (Values between 10 and 25% correspond to low cytotoxicity) | IC50 (CLC-16, genotype T3): 51.5 ± 2.41 µg/mL (≈ 260 µM) | Decrease of the membrane potential (ΔΨm) (A. Neff): 68% | IC50 (CLC-51, genotype T1): 63.07 ± 0.56 µg/mL (≈ 318 µM)

C[C@H]1[C@H](C)CC[C@]2(C(=O)O)CC[C@]3(C)C(=CC[C@@H]4[C@@]5(C)CC[C@H](O)C(C)(C)[C@@H]5CC[C@]43C)[C@H]12 [Ursolic acid]
IC50 A. Neff [2]: 23.94 ± 1.14 µg/mL (≈ 52.4 µM) | Percentage of apoptotic cells [3]: 26% | IC90 [1]: 119 µg/mL (≈ 261 µM) | IC50 (CLC-16, genotype T3): 55 ± 1.21 µg/mL (≈ 120 µM) | Decrease of the membrane potential (ΔΨm) (A. Neff): 80% | IC50 (CLC-51, genotype T1): 28 ± 2.26 µg/mL (≈ 61.2 µM)

O=C(O)c1cc(O)c(O)c(O)c1 [Gallic acid]
IC50 [2]: > 100 µg/mL

COc1cc(/C=C/C(=O)O)ccc1O [Ferulic acid]
IC50 A. Neff [2]: 62.03 ± 1.78 µg/mL (≈ 319 µM)

O=C(O)/C=C/c1ccc(O)c(O)c1 [Caffeic acid]
IC50 [2]: > 100 µg/mL

O=c1c(O)c(-c2ccc(O)c(O)c2)oc2cc(O)cc(O)c12 [Quercetin hydrate]
IC50 [2]: > 100 µg/mL

C/C=C1/[C@H](O[C@@H]2O[C@H](CO)[C@@H](O)[C@H](O)[C@H]2O)OC=C(C(=O)OC)[C@H]1CC(=O)OCCc1ccc(O)c(O)c1 [Oleuropein]
IC50 [2]: 57.5 ± 4.32 µg/mL (≈ 106 µM)

O.Oc1cc(O)c2c(c1)O[C@H](c1ccc(O)c(O)c1)[C@@H](O)C2 [Catechin hydrate]
IC50 A. Neff [2]: >100 µg/mL

O=c1cc(-c2ccc(O)c(O)c2)oc2cc(O[C@@H]3O[C@H](CO)[C@@H](O)[C@H](O)[C@H]3O)cc(O)c12 [Luteolin 7-o-glucoside]
IC50 A. Neff [2]: 61.98 ± 3.93 µg/mL (≈ 138 µM)

COc1cc(C(=O)O)ccc1O [Vanillic acid]
IC50 [2]: 34.7 ± 1.32 µg/mL (≈ 206 µM) | Plasma membrane permeabilization (A. Neff membrane): induced the higher permeabilization; also recorded: caused plasma membrane permeability | IC90 [1]: 133 µg/mL (≈ 789 µM) | Cytotoxicity level at the IC50 against Acanthamoeba (macrophages J774.A1): low cytotoxicity (Values between 10 and 25% correspond to low cytotoxicity) | IC50 (CLC-16, genotype T3): 65.4 ± 0.89 µg/mL (≈ 389 µM) | Decrease of the membrane potential (ΔΨm) (A. Neff): 68% | IC50 (CLC-51, genotype T1): 61.7 ± 4.43 µg/mL (≈ 367 µM)

O=c1oc2c(O)c(O)cc3c(=O)oc4c(O)c(O)cc1c4c23 [Ellagic acid]
IC50 [2]: 67.4 ± 3.59 µg/mL (≈ 223 µM)

O=C(O)/C=C/c1ccc(O)cc1 [p-coumaric acid]
IC50 [2]: 72.19 ± 0.19 µg/mL (≈ 440 µM)

OCCc1ccc(O)cc1 [Tyrosol]
IC50 [2]: 63.77 ± 0.34 µg/mL (≈ 462 µM)

COc1cc(C=O)ccc1O [Vanillin]
IC50 [2]: 25.6 ± 2.1 µg/mL (≈ 168 µM) | Plasma membrane permeabilization (A. Neff membrane): caused plasma membrane permeability | IC90 [1]: 123 µg/mL (≈ 810 µM) | Cytotoxicity level at the IC50 against Acanthamoeba (macrophages J774.A1): low cytotoxicity (Values between 10 and 25% correspond to low cytotoxicity) | IC50 (CLC-16, genotype T3): 58.1 ± 3.77 µg/mL (≈ 382 µM) | Decrease of the membrane potential (ΔΨm) (A. Neff): 36% | IC50 (CLC-51, genotype T1): 37.2 ± 2.85 µg/mL (≈ 244 µM)

O=C(O)c1ccc(O)c(O)c1 [Protochatechuic acid]
IC50 A. Neff [2]: 36.05 ± 1.31 µg/mL (≈ 234 µM)

OCCc1ccc(O)c(O)c1 [Hydroxytyrosol]
IC50 [2]: > 100 µg/mL

O=c1cc(-c2ccc(O)cc2)oc2cc(O)cc(O)c12 [Apigenine]
IC50 [2]: 6.59 ± 0.39 µg/mL (≈ 24.4 µM) | Cytotoxicity level at the IC50 against Acanthamoeba (macrophages J774.A1): high cytotoxicity (abve 40% correspond to high cytotoxicity) | Cytotoxicity level at the IC90 against Acanthamoeba (macrophages J774.A1): high cytotoxicity (abve 40% correspond to high cytotoxicity) | IC50 (CLC-16, genotype T3): 57 ± 2.68 µg/mL (≈ 211 µM) | IC50 (CLC-51, genotype T1): 20.2 ± 0.73 µg/mL (≈ 74.6 µM)

O=C(/C=C/c1ccc(O)c(O)c1)O[C@@H]1C[C@](O)(C(=O)O)C[C@@H](O)[C@H]1O [Chlorogenic acid]
IC50 [2]: > 100 µg/mL

O=C(O)/C=C/c1cccc(O)c1 [m-coumaric acid]
IC50 A. Neff [2]: 65.75 ± 3.97 µg/mL (≈ 401 µM)

C[C@@H]1O[C@@H](O[C@@H]2[C@@H](O)[C@H](OCCc3ccc(O)c(O)c3)O[C@H](CO)[C@H]2OC(=O)/C=C/c2ccc(O)c(O)c2)[C@H](O)[C@H](O)[C@H]1O [Verbascoside]
IC50 [2]: > 100 µg/mL

C[C@@H]1O[C@@H](OC[C@H]2O[C@@H](Oc3c(-c4ccc(O)c(O)c4)oc4cc(O)cc(O)c4c3=O)[C@H](O)[C@@H](O)[C@@H]2O)[C@H](O)[C@H](O)[C@H]1O [Rutin]
IC50 [2]: 61.4 ± 5.44 µg/mL (≈ 101 µM)

CC1(C)CC[C@]2(C(=O)O)CC[C@]3(C)C(=CC[C@@H]4[C@@]5(C)CC[C@H](O)C(C)(C)[C@@H]5CC[C@]43C)[C@@H]2C1 [Oleanolic acid]
IC50 [2]: 43.7 ± 3.34 µg/mL (≈ 95.6 µM)
